Experimental findings from patent US9434724B2, “Quinuclidines for modulating alpha 7 activity” (priority 2014, dated 2016) are described below.

Counter-ions that a name gives are not always drawn. Like-named read-outs stand apart in the source and are kept apart here. Where only a bound is given, the exact number is not on record here.

Series [1] in a line: Metabolic stability assay in rat liver microsomes (RLM). Format: in vitro ADME. The following applies: 1 μM. The procedure, abridged: (§1)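 In Protocol 1, compound was 1 μM final with NADPH at 37 °C, sampled at 0–45 min. In Protocol 2, 1.5 μM compound with 0.75 mg/mL microsomes (pre-NADPH mix) in 0.1 M potassium phosphate, 1 mM EDTA, pH 7.4 was pre-incubated 10 min, then NADPH started the reaction. Both: LC-MS/MS % remaining versus time 0, half-life from single-phase exponential fit.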
Background: Microsomes from liver hold many membrane-bound enzymes, among them those of drug oxidation.

Series [2] has as its target T1, rat brain nicotinic receptor (α7 NAChR) (Rattus norvegicus (Rat), UniProt Q05941). The class given is binding.
The target in series [3] is CYP1A2 (Homo sapiens (Human), UniProt P05177). Description: Cytochrome P450 inhibition in human liver microsomes, CYP1A2. Particulars: read-out: 1A2 IC50, Protocol 2.
A short description of series [4]: Metabolic stability assay in human liver microsomes (HLM). The class given is in vitro ADME. The following applies: 1 μM. The procedure, abridged:
as §1

Series [5] addresses CYP2C19 (Homo sapiens (Human), UniProt P33261). Particulars: microsomes.
Series [6] can be described thus: Human plasma stability. Format: in vitro ADME. Particulars: plasma. The method, boiled down: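 Protocol 1: 1 μM compound in pH 7.4 sodium-heparin human plasma at 37° C, sampled 0–120 min. Protocol 2: 5 μM in plasma at pH 7.4–8.0, 37° C, duplicates, sampled 0–120 min. Both: LC-MS/MS percent remaining versus t0; half-life from single-phase exponential decay.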
The target in series [7] is T1, rat brain nicotinic receptor (α7 NAChR). Format: binding. The following applies: Protocol No. 2; [3H] α-Bungarotoxin 0.4 nM, rat brain P2 membrane.

CYP1A2, sequence (P05177 whole entry): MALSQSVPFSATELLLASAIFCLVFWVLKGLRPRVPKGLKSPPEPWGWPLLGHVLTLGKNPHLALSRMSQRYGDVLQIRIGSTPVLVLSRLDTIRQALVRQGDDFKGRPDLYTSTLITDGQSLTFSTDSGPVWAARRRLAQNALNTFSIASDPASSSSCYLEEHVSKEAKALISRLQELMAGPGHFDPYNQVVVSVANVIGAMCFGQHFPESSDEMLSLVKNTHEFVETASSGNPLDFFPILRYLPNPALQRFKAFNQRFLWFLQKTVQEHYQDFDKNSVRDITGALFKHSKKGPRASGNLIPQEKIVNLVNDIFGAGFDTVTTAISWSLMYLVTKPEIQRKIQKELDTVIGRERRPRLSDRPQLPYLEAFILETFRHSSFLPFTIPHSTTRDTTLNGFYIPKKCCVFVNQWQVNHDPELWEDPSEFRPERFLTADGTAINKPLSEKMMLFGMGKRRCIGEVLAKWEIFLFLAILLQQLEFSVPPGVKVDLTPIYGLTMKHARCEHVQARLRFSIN
T1 sequence (Q05941 23-502 limits assumed): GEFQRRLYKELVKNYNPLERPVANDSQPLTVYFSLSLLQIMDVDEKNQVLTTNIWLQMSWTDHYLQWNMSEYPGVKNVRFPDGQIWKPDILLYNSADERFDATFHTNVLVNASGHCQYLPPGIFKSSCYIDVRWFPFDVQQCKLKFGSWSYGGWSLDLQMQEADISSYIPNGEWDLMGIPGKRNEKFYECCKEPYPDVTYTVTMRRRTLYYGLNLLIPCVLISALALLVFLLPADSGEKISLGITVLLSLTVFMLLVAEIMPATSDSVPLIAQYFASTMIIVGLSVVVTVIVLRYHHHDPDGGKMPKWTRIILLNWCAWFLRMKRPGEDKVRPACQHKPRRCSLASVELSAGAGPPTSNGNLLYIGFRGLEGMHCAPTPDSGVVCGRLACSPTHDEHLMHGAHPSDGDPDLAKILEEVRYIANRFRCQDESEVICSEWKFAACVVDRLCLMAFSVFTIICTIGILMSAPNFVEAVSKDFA
CYP2C19, sequence (P33261 whole entry): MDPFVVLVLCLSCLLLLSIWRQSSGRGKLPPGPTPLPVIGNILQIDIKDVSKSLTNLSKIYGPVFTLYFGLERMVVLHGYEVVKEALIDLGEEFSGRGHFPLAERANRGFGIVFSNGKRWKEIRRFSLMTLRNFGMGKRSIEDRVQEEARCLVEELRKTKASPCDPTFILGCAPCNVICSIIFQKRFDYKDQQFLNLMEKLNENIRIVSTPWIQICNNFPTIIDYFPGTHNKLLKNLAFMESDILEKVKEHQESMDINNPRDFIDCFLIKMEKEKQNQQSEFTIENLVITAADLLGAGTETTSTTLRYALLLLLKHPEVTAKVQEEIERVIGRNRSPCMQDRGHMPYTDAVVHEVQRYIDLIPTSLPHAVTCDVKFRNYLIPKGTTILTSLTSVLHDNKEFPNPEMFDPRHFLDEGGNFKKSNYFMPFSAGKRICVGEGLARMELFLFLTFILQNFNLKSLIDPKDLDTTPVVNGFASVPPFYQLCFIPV

What is called IC50 is the concentration at which inhibition is half-maximal. The Ki is the dissociation constant of the complex between target and ligand, obtained from inhibition or displacement. Lower therefore signals tighter binding. In series [1] (rat, microsomes, pH 7.4), `O=C(OCC12CCN(CC1)CC2)c1c[nH]c2ccc(Cl)cc12` [Compound 2, quinuclidin-4-ylmethyl 5-chloro-1H-indole-3-carboxylate] had an RLM of 127.44 mL/min/kg. For the same compound, the IC50 was 328 nM in series [2], greater than 10000 nM in series [3] and greater than 10000 nM in series [5]. The same compound displayed a Ki in series [2] of 287 nM. This compound also returned an HLM in series [4] (human, microsomes, pH 7.4) of less than 13.608 mL/min/kg.

Usually half-life stands for the time in which the quantity being followed falls by half. Turning to `O=C(OCC12CCN(CC1)CC2)c1c[nH]c2cccc(F)c12` [Compound 13, quinuclidin-4-ylmethyl 4-fluoro-1H-indole-3-carboxylate], the half-life at 1 μM in series [6] (human, pH 7.4) was found to be 0.25 h. In series [1] (rat, microsomes, pH 7.4), this compound had an RLM of 94.3866 mL/min/kg. Moreover, the IC50 in series [2] was 14.1 nM; in series [3], greater than 10000 nM; in series [5], greater than 10000 nM. The Ki in series [2] turned out to be 12.2 nM. This compound showed an HLM in series [4] (human, microsomes, pH 7.4) of less than 13.608 mL/min/kg.

In the case of `Cc1cccc2[nH]cc(C(=O)OCC34CCN(CC3)CC4)c12` [Compound 21, quinuclidin-4-ylmethyl 4-methyl-1H-indole-3-carboxylate], the “% Remaining @ 2 h” value in series [6] (human, 2 h, 1 μM, pH 7.4) turned out to be 83%. The half-life at 1 μM in series [6] (human, pH 7.4) is greater than 2 h. In addition, in series [1] (rat, microsomes, pH 7.4), the RLM stood at 379.107 mL/min/kg. In addition, the IC50 in series [2] was 58.8 nM; in series [3] it was greater than 10000 nM; in series [5], greater than 10000 nM. Further, the inhibition constant Ki in series [2] is 50.9 nM. Further, the HLM in series [4] (human, microsomes, pH 7.4) is given as less than 13.608 mL/min/kg.

For `O=C(OCC12CCN(CC1)CC2)c1c[nH]c2cc(Br)ccc12` [Compound 22, quinuclidin-4-ylmethyl 6-bromo-1H-indole-3-carboxylate], the “% Remaining @ 2 h” value in series [6] (human, 2 h, 1 μM, pH 7.4) is reported as 58%. In series [6] (human, pH 7.4), this compound came in with a half-life at 1 μM greater than 2 h. The RLM in series [1] (rat, microsomes, pH 7.4) worked out at 49.5027 mL/min/kg. In addition, the figures for the IC50 in series [2], in series [3] and in series [5] were 607 nM, greater than 10000 nM and greater than 10000 nM, respectively. For the same compound, the Ki in series [2] turned out to be 532 nM. In addition, the HLM in series [4] (human, microsomes, pH 7.4) is on record as less than 13.608 mL/min/kg.

Take `O=C(OCC12CCN(CC1)CC2)c1c[nH]c2ccc(Br)cc12` [Compound 23, quinuclidin-4-ylmethyl 5-bromo-1H-indole-3-carboxylate]: in series [6] (human, 2 h, 1 μM, pH 7.4), the “% Remaining @ 2 h” value came out at 21%. In series [6] (human, pH 7.4), the half-life at 1 μM was found to be 0.882 h. Also, the RLM in series [1] (rat, microsomes, pH 7.4) stood at 81.6815 mL/min/kg. The IC50 in series [2] was 424 nM; in series [3], greater than 10000 nM; in series [5], greater than 10000 nM. This compound gave a Ki in series [2] of 374 nM. In series [4] (human, microsomes, pH 7.4), this compound had an HLM of less than 13.608 mL/min/kg.

`O=C(OCC12CCN(CC1)CC2)c1c[nH]c2cccc(Br)c12` [Compound 24, quinuclidin-4-ylmethyl 4-bromo-1H-indole-3-carboxylate]: in series [6] (human, 2 h, 1 μM, pH 7.4), the “% Remaining @ 2 h” value is reported as 89%. For the same compound, the half-life at 1 μM in series [6] (human, pH 7.4) was greater than 2 h. Besides, the RLM in series [1] (rat, microsomes, pH 7.4) amounted to 175.569 mL/min/kg. The IC50 in series [2] is 58.1 nM; in series [3], greater than 10000 nM; in series [5] it was greater than 10000 nM. The same compound yielded a Ki in series [2] of 50.4 nM. Besides, the HLM in series [4] (human, microsomes, pH 7.4) is given as less than 13.608 mL/min/kg.

In series [1] (rat, microsomes, pH 7.4), `O=C(OCC12CCN(CC1)CC2)c1c[nH]c2c(Cl)cccc12` [Compound 25, quinuclidin-4-ylmethyl 7-chloro-1H-indole-3-carboxylate] displayed an RLM of 219.053 mL/min/kg. For the same compound, the IC50 in series [2] is 1650 nM; in series [3] it was greater than 10000 nM; in series [5], greater than 10000 nM. The affinity in series [2], expressed as Ki, was 1450 nM. Besides, the HLM in series [4] (human, microsomes, pH 7.4) was less than 13.608 mL/min/kg.

On to `O=C(OCC12CCN(CC1)CC2)c1c[nH]c2cc(Cl)ccc12` [Compound 26, quinuclidin-4-ylmethyl 6-chloro-1H-indole-3-carboxylate], for which, in series [6] (human, 2 h, 1 μM, pH 7.4), the “% Remaining @ 2 h” value is 65%. The half-life at 1 μM in series [6] (human, pH 7.4) was greater than 2 h. The compound also registered an RLM in series [1] (rat, microsomes, pH 7.4) of 75.0501 mL/min/kg. Also, the IC50 in series [2] was 451 nM; in series [3], greater than 10000 nM; in series [5], greater than 10000 nM. For the same compound, the Ki in series [2] turned out to be 398 nM. The compound also registered an HLM in series [4] (human, microsomes, pH 7.4) of less than 13.608 mL/min/kg.

Turning to `O=C(OCC12CCN(CC1)CC2)c1c[nH]c2ccc(Cl)cc12` [Compound 27, quinuclidin-4-ylmethyl 5-chloro-1H-indole-3-carboxylate], the RLM in series [1] (rat, microsomes, pH 7.4) turned out to be 106.429 mL/min/kg. Moreover, the IC50 in series [2] is 282 nM; in series [3], greater than 10000 nM; in series [5], greater than 10000 nM. This compound came in with a Ki in series [2] of 247 nM. In series [4] (human, microsomes, pH 7.4), this compound had an HLM of less than 13.608 mL/min/kg.

In the case of `O=C(OCC12CCN(CC1)CC2)c1c[nH]c2cccc(Cl)c12` [Compound 35, quinuclidin-4-ylmethyl 4-chloro-1H-indole-3-carboxylate], in series [6] (human, 2 h, 1 μM, pH 7.4), the “% Remaining @ 2 h” value came out at 56%. This compound displayed a half-life at 1 μM in series [6] (human, pH 7.4) greater than 2 h. In series [1] (rat, microsomes, pH 7.4), this compound returned an RLM of 183.6 mL/min/kg. Besides, the IC50 is 26.6 nM in series [2], greater than 10000 nM in series [3] and greater than 10000 nM in series [5]. The same compound displayed a Ki in series [2] of 23 nM. In series [4] (human, microsomes, pH 7.4), this compound registered an HLM of less than 13.608 mL/min/kg.

As for `Cc1cc(OC(=O)C(C)(C)C)cc2[nH]cc(C(=O)OCC34CCN(CC3)CC4)c12` [Compound 89, quinuclidin-4-ylmethyl 4-methyl-6-(pivaloyloxy)-1H-indole-3-carboxylate], in series [6] (human, 2 h, 5 μM), the “% Remaining @ 2 h” value worked out at 77.23%. This compound displayed an RLM in series [1] (rat, microsomes) of 1154.15 mL/min/kg. In addition, in series [4] (human, microsomes), the HLM turned out to be 347.66 mL/min/kg. In series [7], this compound returned an IC50 of 1070 nM and a Ki of 2130 nM.

In the case of `Cl.O=C(OCC12CCN(CC1)CC2)c1c[nH]c2cc(C(F)(F)F)ccc12` [Compound 90, quinuclidin-4-ylmethyl 6-(trifluoromethyl)-1H-indole-3-carboxylate], the “% Remaining @ 2 h” value in series [6] (Protocol No. 2, 5 μM, 37° C.) is recorded as 63.18%. Also, the RLM in series [1] (Protocol No. 1, rat liver microsomes) is 72.22 mL/min/kg. The same compound showed an HLM in series [4] (Protocol No. 1, human liver microsomes) of 5.21 mL/min/kg. In series [7], this compound had an IC50 greater than 3000 nM and a Ki greater than 3000 nM.

Turning to `CC(=O)Nc1cc(C)c2c(C(=O)OCC34CCN(CC3)CC4)c[nH]c2c1` [Compound 93, quinuclidin-4-ylmethyl 6-acetamido-4-methyl-1H-indole-3-carboxylate], in series [6] (human, 2 h, 5 μM), the “% Remaining @ 2 h” value was 81.38%. In series [1] (rat, microsomes), this compound registered an RLM of 12.66 mL/min/kg. In addition, the HLM in series [4] (human, microsomes) came out at 12.96 mL/min/kg. In series [7], this compound showed an IC50 of 1310 nM and a Ki of 2870 nM.

For `Cc1c(OCC(F)(F)F)ccc2[nH]cc(C(=O)OCC34CCN(CC3)CC4)c12` [Compound 94, quinuclidin-4-ylmethyl 4-methyl-5-(2,2,2-trifluoroethoxy)-1H-indole-3-carboxylate], the “% Remaining @ 2 h” value in series [6] (human, 2 h, 5 μM) worked out at 76.38%. Besides, in series [1] (rat, microsomes), the RLM worked out at 26.52 mL/min/kg. For the same compound, the HLM in series [4] (human, microsomes) was 2.62 mL/min/kg. In series [7], this compound registered an IC50 of 162 nM and a Ki of 230 nM.

For `Cc1c(OCCO)ccc2[nH]cc(C(=O)OCC34CCN(CC3)CC4)c12` [Compound 95, quinuclidin-4-ylmethyl 5-(2-hydroxyethoxy)-4-methyl-1H-indole-3-carboxylate, 2,2,2-trifluoroacetate salt], in series [6] (human, 2 h, 5 μM), the “% Remaining @ 2 h” value stood at 73.17%. This compound came in with an RLM in series [1] (rat, microsomes) of 17.75 mL/min/kg. Besides, the HLM in series [4] (human, microsomes) was determined as 2.86 mL/min/kg. In series [7], this compound returned an IC50 of 213 nM and a Ki of 414 nM.
